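Method: 48-hour compound exposure of cells in 96-well plates, five concentrations, linear interpolation of endpoints. TGI is the concentration that stops growth completely.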
Columns and labels:
Experiment in all cases: inhibition of tumour cell growth, NCI panel, 48 h
DMS 273 small cell lung = tested on: DMS 273 small cell lung
SK-MEL-5 melanoma = tested on: SK-MEL-5 melanoma
SK-MEL-28 melanoma = tested on: SK-MEL-28 melanoma
SN12C renal = tested on: SN12C renal
HOP-18 NSCLC = tested on: HOP-18 NSCLC
XF 498 CNS = tested on: XF 498 CNS
RPMI-8226 leukemia = tested on: RPMI-8226 leukemia
ACHN renal = tested on: ACHN renal
UACC-62 melanoma = tested on: UACC-62 melanoma
NCI-H522 lung = tested on: NCI-H522 lung
CAKI-1 renal = tested on: CAKI-1 renal
LXFL 529 NSCLC = tested on: LXFL 529 NSCLC
IGROV1 ovarian = tested on: IGROV1 ovarian
HL-60(TB) leukemia = tested on: HL-60(TB) leukemia
HOP-62 NSCLC = tested on: HOP-62 NSCLC
TK-10 renal = tested on: TK-10 renal
NCI-H226 lung = tested on: NCI-H226 lung
UACC-257 melanoma = tested on: UACC-257 melanoma
SNB-78 CNS = tested on: SNB-78 CNS
RXF-631 renal = tested on: RXF-631 renal
EKVX NSCLC = tested on: EKVX NSCLC
HCT-116 colon = tested on: HCT-116 colon
SNB-75 CNS = tested on: SNB-75 CNS
SNB-19 CNS = tested on: SNB-19 CNS
DLD-1 colon = tested on: DLD-1 colon
K-562 leukemia = tested on: K-562 leukemia
DMS 114 small cell lung = tested on: DMS 114 small cell lung
HCT-15 colon = tested on: HCT-15 colon
HT29 colon = tested on: HT29 colon
KM12 colon = tested on: KM12 colon
UO-31 renal = tested on: UO-31 renal
SF-539 CNS = tested on: SF-539 CNS
786-0 renal = tested on: 786-0 renal
M19-MEL melanoma = tested on: M19-MEL melanoma
KM20L2 colon = tested on: KM20L2 colon
SK-MEL-2 melanoma = tested on: SK-MEL-2 melanoma
COLO 205 colon = tested on: COLO 205 colon
OVCAR-5 ovarian = tested on: OVCAR-5 ovarian
OVCAR-3 ovarian = tested on: OVCAR-3 ovarian
OVCAR-4 ovarian = tested on: OVCAR-4 ovarian
LOX IMVI melanoma = tested on: LOX IMVI melanoma
SR leukemia = tested on: SR leukemia
HCC-2998 colon = tested on: HCC-2998 colon
MALME-3M melanoma = tested on: MALME-3M melanoma
NCI-H460 lung = tested on: NCI-H460 lung
SW-620 colon = tested on: SW-620 colon
CCRF-CEM leukemia = tested on: CCRF-CEM leukemia
M14 melanoma = tested on: M14 melanoma
MOLT-4 leukemia = tested on: MOLT-4 leukemia
A549 NSCLC = tested on: A549 NSCLC
NCI-H23 lung = tested on: NCI-H23 lung
SF-295 CNS = tested on: SF-295 CNS
SK-OV-3 ovarian = tested on: SK-OV-3 ovarian
U251 CNS = tested on: U251 CNS
OVCAR-8 ovarian = tested on: OVCAR-8 ovarian
A498 renal = tested on: A498 renal
SF-268 CNS = tested on: SF-268 CNS
RXF 393 renal = tested on: RXF 393 renal
HOP-92 NSCLC = tested on: HOP-92 NSCLC

Compound: CN(C(=O)C12C3C4C1C1C2C3C41I)C(C)(C)C (stereo unspecified)
- TGI (DMS 273 small cell lung): > 100 µM
- TGI (SK-MEL-5 melanoma): > 100 µM
- TGI (SK-MEL-28 melanoma): > 100 µM
- TGI (SN12C renal): > 100 µM
- TGI (HOP-18 NSCLC): > 100 µM
- TGI (XF 498 CNS): > 100 µM
- TGI (RPMI-8226 leukemia): > 100 µM
- TGI (ACHN renal): > 100 µM
- TGI (UACC-62 melanoma): > 100 µM
- TGI (NCI-H522 lung): > 100 µM
- TGI (CAKI-1 renal): > 100 µM
- TGI (LXFL 529 NSCLC): > 100 µM
- TGI (IGROV1 ovarian): > 100 µM
- TGI (HL-60(TB) leukemia): > 92.7 µM
- TGI (HOP-62 NSCLC): > 100 µM
- TGI (TK-10 renal): > 100 µM
- TGI (NCI-H226 lung): > 94.6 µM
- TGI (UACC-257 melanoma): > 100 µM
- TGI (SNB-78 CNS): > 100 µM
- TGI (RXF-631 renal): > 100 µM
- TGI (EKVX NSCLC): > 100 µM
- TGI (HCT-116 colon): > 100 µM
- TGI (SNB-75 CNS): > 100 µM
- TGI (SNB-19 CNS): > 100 µM
- TGI (DLD-1 colon): > 100 µM
- TGI (K-562 leukemia): > 100 µM
- TGI (DMS 114 small cell lung): > 100 µM
- TGI (HCT-15 colon): > 100 µM
- TGI (HT29 colon): > 100 µM
- TGI (KM12 colon): > 100 µM
- TGI (UO-31 renal): > 100 µM
- TGI (SF-539 CNS): > 100 µM
- TGI (786-0 renal): > 100 µM
- TGI (M19-MEL melanoma): > 100 µM
- TGI (KM20L2 colon): > 100 µM
- TGI (SK-MEL-2 melanoma): > 100 µM
- TGI (COLO 205 colon): > 100 µM
- TGI (OVCAR-5 ovarian): > 100 µM
- TGI (OVCAR-3 ovarian): > 100 µM
- TGI (OVCAR-4 ovarian): > 100 µM
- TGI (LOX IMVI melanoma): > 100 µM
- TGI (SR leukemia): > 31.6 µM
- TGI (HCC-2998 colon): > 100 µM
- TGI (MALME-3M melanoma): > 100 µM
- TGI (NCI-H460 lung): > 100 µM
- TGI (SW-620 colon): > 100 µM
- TGI (CCRF-CEM leukemia): > 43 µM
- TGI (M14 melanoma): > 100 µM
- TGI (MOLT-4 leukemia): > 47.3 µM
- TGI (A549 NSCLC): > 100 µM
- TGI (NCI-H23 lung): > 100 µM
- TGI (SF-295 CNS): > 100 µM
- TGI (SK-OV-3 ovarian): > 100 µM
- TGI (U251 CNS): > 100 µM
- TGI (OVCAR-8 ovarian): > 100 µM
- TGI (A498 renal): > 100 µM
- TGI (SF-268 CNS): > 100 µM

Compound: COc1cc(NC(C)=O)c2[nH]c3c(C)cc(NC(C)=O)c(C)c3c2c1
- TGI (DMS 273 small cell lung): > 100 µM
- TGI (SK-MEL-5 melanoma): > 100 µM
- TGI (SK-MEL-28 melanoma): > 100 µM
- TGI (SN12C renal): > 100 µM
- TGI (HOP-18 NSCLC): > 100 µM
- TGI (XF 498 CNS): > 100 µM
- TGI (RPMI-8226 leukemia): > 100 µM
- TGI (ACHN renal): > 100 µM
- TGI (NCI-H522 lung): > 100 µM
- TGI (CAKI-1 renal): > 100 µM
- TGI (RXF 393 renal): > 100 µM
- TGI (LXFL 529 NSCLC): > 100 µM
- TGI (HOP-92 NSCLC): > 100 µM
- TGI (IGROV1 ovarian): > 100 µM
- TGI (HL-60(TB) leukemia): > 100 µM
- TGI (TK-10 renal): > 100 µM
- TGI (NCI-H226 lung): > 100 µM
- TGI (EKVX NSCLC): > 100 µM
- TGI (HCT-116 colon): > 100 µM
- TGI (SNB-75 CNS): > 100 µM
- TGI (SNB-19 CNS): > 100 µM
- TGI (DLD-1 colon): > 100 µM
- TGI (K-562 leukemia): > 100 µM
- TGI (DMS 114 small cell lung): > 100 µM
- TGI (HCT-15 colon): > 100 µM
- TGI (HT29 colon): > 100 µM
- TGI (KM12 colon): > 100 µM
- TGI (UO-31 renal): > 100 µM
- TGI (SF-539 CNS): > 100 µM
- TGI (786-0 renal): > 100 µM
- TGI (M19-MEL melanoma): > 100 µM
- TGI (KM20L2 colon): > 100 µM
- TGI (SK-MEL-2 melanoma): > 100 µM
- TGI (COLO 205 colon): > 100 µM
- TGI (OVCAR-3 ovarian): > 100 µM
- TGI (OVCAR-4 ovarian): > 100 µM
- TGI (HCC-2998 colon): > 100 µM
- TGI (NCI-H460 lung): > 100 µM
- TGI (SW-620 colon): > 100 µM
- TGI (CCRF-CEM leukemia): > 100 µM
- TGI (M14 melanoma): > 100 µM
- TGI (MOLT-4 leukemia): > 100 µM
- TGI (A549 NSCLC): > 100 µM
- TGI (NCI-H23 lung): > 100 µM
- TGI (SF-295 CNS): > 100 µM
- TGI (SK-OV-3 ovarian): > 100 µM
- TGI (U251 CNS): > 100 µM
- TGI (OVCAR-8 ovarian): > 100 µM
- TGI (A498 renal): > 100 µM
- TGI (SF-268 CNS): > 100 µM

Compound: CC1=C2CCCC2C/C(=N/Nc2ccc([N+](=O)[O-])cc2[N+](=O)[O-])CC1 (stereo unspecified)
- TGI (DMS 273 small cell lung): > 100 µM
- TGI (SK-MEL-5 melanoma): > 100 µM
- TGI (SK-MEL-28 melanoma): > 100 µM
- TGI (SN12C renal): > 100 µM
- TGI (HOP-18 NSCLC): > 100 µM
- TGI (XF 498 CNS): > 100 µM
- TGI (RPMI-8226 leukemia): > 100 µM
- TGI (ACHN renal): > 100 µM
- TGI (UACC-62 melanoma): > 100 µM
- TGI (NCI-H522 lung): > 100 µM
- TGI (CAKI-1 renal): > 100 µM
- TGI (LXFL 529 NSCLC): > 100 µM
- TGI (HOP-92 NSCLC): > 100 µM
- TGI (IGROV1 ovarian): > 100 µM
- TGI (HL-60(TB) leukemia): 83.2 µM
- TGI (HOP-62 NSCLC): > 100 µM
- TGI (TK-10 renal): > 100 µM
- TGI (NCI-H226 lung): > 100 µM
- TGI (UACC-257 melanoma): > 100 µM
- TGI (RXF-631 renal): > 100 µM
- TGI (HCT-116 colon): > 100 µM
- TGI (SNB-75 CNS): > 100 µM
- TGI (SNB-19 CNS): > 100 µM
- TGI (K-562 leukemia): > 100 µM
- TGI (DMS 114 small cell lung): > 100 µM
- TGI (HCT-15 colon): > 100 µM
- TGI (HT29 colon): > 100 µM
- TGI (KM12 colon): > 100 µM
- TGI (UO-31 renal): > 100 µM
- TGI (SF-539 CNS): > 100 µM
- TGI (786-0 renal): > 100 µM
- TGI (M19-MEL melanoma): > 100 µM
- TGI (KM20L2 colon): > 100 µM
- TGI (SK-MEL-2 melanoma): > 100 µM
- TGI (COLO 205 colon): > 100 µM
- TGI (OVCAR-5 ovarian): > 100 µM
- TGI (OVCAR-3 ovarian): > 100 µM
- TGI (OVCAR-4 ovarian): > 100 µM
- TGI (LOX IMVI melanoma): > 100 µM
- TGI (SR leukemia): > 100 µM
- TGI (HCC-2998 colon): > 100 µM
- TGI (MALME-3M melanoma): > 100 µM
- TGI (NCI-H460 lung): > 100 µM
- TGI (SW-620 colon): > 100 µM
- TGI (M14 melanoma): > 100 µM
- TGI (MOLT-4 leukemia): > 100 µM
- TGI (A549 NSCLC): > 100 µM
- TGI (NCI-H23 lung): > 100 µM
- TGI (SF-295 CNS): > 100 µM
- TGI (SK-OV-3 ovarian): > 100 µM
- TGI (U251 CNS): > 100 µM
- TGI (OVCAR-8 ovarian): > 100 µM
- TGI (A498 renal): > 100 µM
- TGI (SF-268 CNS): > 100 µM
